How the values were obtained:
Test in all cases: relative viability (nuclei count vs DMSO), 5 days (fraction); higher = more cells survive
NVP-TAE684 + Decitabine = compound: COc1cc(N2CCC(N3CCN(C)CC3)CC2)ccc1Nc1ncc(Cl)c(Nc2ccccc2S(=O)(=O)C(C)C)n1 [NVP-TAE684] + Nc1ncn([C@H]2C[C@H](O)[C@@H](CO)O2)c(=O)n1 [Decitabine] (partner 2 µM)
In short: (§1)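 Five library-drug doses in √10 steps were combined with a fixed anchor-drug dose, or a single drug was given alone, by pin tool to lung cancer cell lines in 1536-well plates the day after seeding. Nuclei were stained and counted after 5 days. Relative viability is the nuclei count in treated wells over that in vehicle wells, taken as the median of duplicate plates.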

[1] = compound: C1=CC=C2C(=C1)N=C(S2)C(C#N)C3=NC(=NC=C3)NCCC4=CN=CC=C4 + Cc1nc(NC(=O)N2CCC[C@H]2C(N)=O)sc1-c1ccnc(C(C)(C)C(F)(F)F)c1 [Alpelisib] (partner 2 µM)
In short: as §1

[2] = compound: C1=CC=C2C(=C1)N=C(S2)C(C#N)C3=NC(=NC=C3)NCCC4=CN=CC=C4 + CCNC(=O)c1noc(-c2cc(C(C)C)c(O)cc2O)c1-c1ccc(CN2CCOCC2)cc1 [Luminespib] (partner 0.01 µM)
In short: as §1

[3] = compound: C1=CC=C2C(=C1)N=C(S2)C(C#N)C3=NC(=NC=C3)NCCC4=CN=CC=C4 + N=C(N)NC(=N)NCCc1ccccc1 [Phenformin] (partner 250 µM)
In short: as §1

Cell Line	relative viability (NVP-TAE684 + Decitabine; first compound 0.2 µM)	relative viability (NVP-TAE684 + Decitabine; first compound 0.6325 µM)	relative viability (NVP-TAE684 + Decitabine; first compound 2 µM)	relative viability ([1]; first compound 0.005 µM)	relative viability ([1]; first compound 0.01581 µM)	relative viability ([1]; first compound 0.05 µM)	relative viability ([1]; first compound 0.1581 µM)	relative viability ([1]; first compound 0.5 µM)	relative viability ([2]; first compound 0.005 µM)	relative viability ([2]; first compound 0.01581 µM)	relative viability ([2]; first compound 0.05 µM)	relative viability ([2]; first compound 0.1581 µM)	relative viability ([2]; first compound 0.5 µM)	relative viability ([3]; first compound 0.005 µM)	relative viability ([3]; first compound 0.01581 µM)	relative viability ([3]; first compound 0.05 µM)	relative viability ([3]; first compound 0.1581 µM)	relative viability ([3]; first compound 0.5 µM)
LOU-NH91	0.801	0.782	0.645	0.707	0.752	0.62	0.723	0.698	0.274	0.34	0.336	0.333	0.43	0.677	0.702	0.597	0.687	0.685
LU99A	0.97	–	0.496	0.509	0.545	0.522	0.548	0.536	0.188	0.254	0.262	0.268	0.274	0.767	0.9	0.793	1.07	0.814
LXF-289	0.433	0.384	0.267	0.979	1.15	1.04	1.12	0.998	0.544	0.74	0.661	0.875	0.677	0.447	0.563	0.458	0.592	0.496
NCI-H23	0.31	0.322	0.241	–	0.74	0.582	0.845	0.725	0.211	–	0.204	0.225	0.215	0.638	0.762	0.804	0.934	0.886
NCI-H322M	0.658	0.619	0.526	0.825	0.77	0.68	0.899	0.709	0.646	0.829	0.88	0.933	0.932	0.63	0.688	0.708	0.81	0.694
NCI-H358	0.198	0.197	0.0907	0.603	0.795	0.802	0.981	0.744	0.248	0.465	0.296	0.475	0.185	0.216	0.329	0.334	0.404	0.258
NCI-H441	0.235	0.279	0.232	–	0.623	0.803	1.27	0.487	–	0.308	0.351	0.365	0.301	–	0.993	1	0.913	0.79
NCI-H460	0.535	0.51	0.294	–	0.508	0.503	0.579	0.309	0.0281	0.0289	0.031	0.0329	0.0322	0.281	0.57	0.503	0.695	0.29
NCI-H520	0.508	0.45	0.267	0.508	1.09	0.793	1.13	0.665	0.237	0.201	0.214	0.224	0.198	0.494	0.472	0.556	0.636	0.532
NCI-H596	1	1.08	0.989	0.401	0.576	0.44	0.541	0.384	0.627	1.02	0.875	1.07	0.764	0.557	0.848	0.687	0.921	0.801
NCI-H647	0.388	0.386	0.261	–	1.18	0.876	1.41	0.599	0.208	0.262	0.169	0.235	0.286	0.265	0.442	0.584	0.775	0.292
NCI-H650	0.306	0.329	0.276	0.859	1.22	1.04	1.18	1.2	0.784	–	0.724	0.825	0.863	0.49	–	0.483	0.452	0.505
NCI-H661	0.584	0.495	0.508	0.632	0.482	0.61	0.841	0.798	0.902	0.917	0.918	0.926	0.933	0.231	0.255	0.291	0.291	0.277
NCI-H727	0.836	0.771	0.552	0.508	0.508	0.566	0.565	0.409	–	0.241	0.294	0.105	0.329	–	0.577	0.45	0.55	0.641
NCI-H838	0.456	0.464	0.314	0.841	0.965	0.959	0.961	0.852	0.327	0.368	0.252	0.367	0.273	0.326	0.573	0.527	0.717	0.39
NCI-H1355	0.372	0.383	0.31	0.852	0.901	0.823	0.883	0.633	0.618	0.832	0.765	0.763	0.568	0.41	0.437	0.412	0.436	0.412
NCI-H1395	0.682	0.712	0.616	1.14	–	0.939	1.04	1.21	0.878	0.641	0.822	0.679	0.819	0.422	0.378	0.415	0.449	0.418
NCI-H1437	0.596	0.548	0.474	0.797	1.11	0.962	1.09	0.695	1.06	1.25	1.12	1.18	1.1	0.298	0.3	0.345	0.339	0.223
NCI-H1651	0.614	0.566	0.502	0.667	1.07	1.12	1.11	0.73	0.752	0.647	1.02	1.09	0.705	0.281	0.352	0.364	0.403	0.337
NCI-H1666	0.71	0.732	0.597	0.915	0.971	0.876	1.11	0.892	0.856	0.965	0.986	1.1	0.833	0.529	0.578	0.556	0.539	0.511
NCI-H1734	0.466	0.347	0.432	0.695	0.729	0.518	0.726	0.714	–	0.253	0.184	0.185	0.188	–	0.44	0.375	0.471	0.392
NCI-H1755	0.715	0.756	0.667	0.839	1	0.959	1.03	0.849	0.458	0.406	0.262	0.576	0.61	0.617	0.641	0.621	0.695	0.607
NCI-H1792	0.359	0.558	0.309	–	0.817	0.696	0.891	0.517	–	0.462	0.453	0.255	0.6	–	–	0.286	0.697	0.388
NCI-H1793	0.459	0.468	0.361	0.692	0.521	0.55	0.763	0.739	0.16	0.141	0.182	0.158	0.22	0.382	0.369	0.328	0.454	0.355
NCI-H1915	0.284	0.263	0.257	0.997	1.05	1.04	1.12	1.05	0.464	0.933	0.826	0.876	0.601	0.312	0.37	0.356	0.398	0.353
NCI-H1944	0.437	0.519	0.413	0.799	0.86	0.771	0.835	0.803	0.739	0.854	0.558	0.636	0.759	0.159	0.227	0.206	0.234	0.203
NCI-H1975	0.401	0.389	0.36	0.352	0.669	0.62	0.668	0.403	–	0.202	0.246	0.171	0.225	0.301	0.42	0.404	0.447	0.359
NCI-H1993	0.618	0.629	0.501	0.671	0.692	0.645	0.652	0.747	0.846	0.852	0.821	0.834	0.738	0.586	0.514	0.461	0.58	0.542
NCI-H2009	0.372	0.34	0.345	1.13	1.22	1.18	1.16	1.12	1.1	1.09	1.05	1.07	1.05	0.466	0.477	0.476	0.508	0.437
NCI-H2023	0.238	0.199	0.0999	0.625	0.659	0.649	0.681	0.404	0.994	1	0.901	1.03	0.765	0.384	0.439	0.424	0.47	0.423

From the supplement of paper PMC10307832
